Experimental data published in patent publication EP1087973B1, “IMIDAZOTRIAZOLOPYRIMIDINES USED AS A DRUG HAVING AN ADENOSINE ANTAGONIST ACTIVITY” (Boehringer Ingelheim Pharma KG, priority 1998, dated 1999).

The molecules below were run against T1, human A3-adenosine receptor (Homo sapiens, UniProt P0DMS8) (assay: A3 receptor binding, determined in analogy to Salvatore et al.). Settings: KiA3 (human) Rezeptorbindungswerte, Tabelle 3.
T1 sequence (P0DMS8 1-318): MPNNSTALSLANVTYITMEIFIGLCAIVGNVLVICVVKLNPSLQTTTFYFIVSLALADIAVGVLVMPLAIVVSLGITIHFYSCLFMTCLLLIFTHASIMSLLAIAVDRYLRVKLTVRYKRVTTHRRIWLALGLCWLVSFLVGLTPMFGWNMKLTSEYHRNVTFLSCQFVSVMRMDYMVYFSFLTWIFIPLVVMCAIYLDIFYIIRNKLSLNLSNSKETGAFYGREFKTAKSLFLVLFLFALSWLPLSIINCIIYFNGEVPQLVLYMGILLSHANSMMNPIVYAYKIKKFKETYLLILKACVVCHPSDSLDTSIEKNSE
Text: Tabelle 3 enthält KiA3 (human) Rezeptorbindungswerte.

| SMILES | Ki [nM] |
| --- | --- |
| CCCc1nc2c([nH]1)c(=O)n(CCC)c1nc(C3CCCC3)nn21 [Beispiel 2, 2-Cyclopentyl-4,7-di-n-propyl-imidazo[4.5-e]-s-triazolo[1.5-a]pyrimidin-5-on] | 5.6 |
| CCn1c(=O)c2[nH]c(C)nc2n2nc(CCc3ccccc3)nc12 [Beispiel 10, 4-Ethyl-7-methyl-2-(2-phenylethyl)-imi-dazo[4.5-e]-s-triazolo[1.5-a]pyrimidin-5-on] | 7.2 |
| CCCn1c(=O)c2[nH]c(C)nc2n2nc(-c3ccco3)nc12 [Beispiel 36, 2-(2-Furanyl)-7-methyl-4-n-propyl-imi-dazo[4.5-e]-s-triazolo[1.5-a]pyrimidin-5-on] | 2.2 |

More lines, now with the values ahead:

| Ki [nM] | SMILES |
| --- | --- |
| 0.9 | CCCn1c(=O)c2[nH]c(C)nc2n2nc(Cc3ccccc3)nc12 [Beispiel 8, 2-Benzyl-7-methyl-4-n-propyl-imidazo[4.5-e]-s-triazolo[1.5-a]pyrimidin-5-on] |
| 8.3 | CCCc1nc2c([nH]1)c(=O)n(CCC)c1nc(-c3ccco3)nn21 [Beispiel 37, 2-(2-Furanyl)-4,7-di-n-propyl-imidazo[4.5-e]-s-triazolo[1.5-a]pyrimidin-5-on] |

Each molecule was assayed against T2, human A1 adenosine Receptor (Homo sapiens, UniProt P30542) (assay: A1 receptor binding, determined in analogy to Ensinger et al.). Settings: KiA1 (human) Rezeptorbindungswerte, Tabelle 2; read-out: KjA1.
T2 sequence (P30542 1-326): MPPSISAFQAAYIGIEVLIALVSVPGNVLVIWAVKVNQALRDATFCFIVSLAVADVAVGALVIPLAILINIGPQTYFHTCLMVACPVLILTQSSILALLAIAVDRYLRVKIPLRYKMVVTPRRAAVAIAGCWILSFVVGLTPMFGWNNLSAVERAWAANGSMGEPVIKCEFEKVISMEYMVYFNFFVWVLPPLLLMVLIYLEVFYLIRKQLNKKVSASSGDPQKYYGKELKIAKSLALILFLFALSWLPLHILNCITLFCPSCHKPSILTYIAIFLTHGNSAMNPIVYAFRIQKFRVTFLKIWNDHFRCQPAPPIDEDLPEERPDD
Text: Die nachfolgende Tabelle enthält KiA1 (human) Rezeptorbindungswerte.

| SMILES | Ki [nM] |
| --- | --- |
| CCCc1nc2c([nH]1)c(=O)n(CC)c1nc(CCc3ccccc3)nn21 [Beispiel 11, 4-Ethyl-2-(2-phenylethyl)-7-n-propyl-imi-dazo[4.5-e]-s-triazolo[1.5-a]pyrimidin-5-on] | 8.1 |
| CCn1c(=O)c2[nH]c(C(C)(C)C)nc2n2nc(Cc3ccc(O)cc3)nc12 [Beispiel 12, 7-t-Butyl-4-ethyl-2-(4-hydroxybenzyl)-imi-dazo[4.5-e]-s-triazolo[1.5-a]pyrimidin-5-on] | 6 |
| CCn1c(=O)c2[nH]c(C(C)(C)C)nc2n2nc(Cc3ccc(OC)cc3)nc12 [Beispiel 15, 7-t-Butyl-4-ethyl-2-(4-methoxybenzyl)-imi-dazo[4.5-e]-s-triazolo[1.5-a]pyrimidin-5-on] | 2.1 |
| CCn1c(=O)c2[nH]c(C3CCCC3)nc2n2nc(COc3ccccc3)nc12 [Beispiel 29, 7-Cyclopentyl-4-ethyl-2-phenyloxymethyl-imidazo[4.5-e]-s-triazolo[1.5-a]pyrimidin-5-on] | 3.6 |
| CCn1c(=O)c2[nH]c(C3CCCC3)nc2n2nc(Cn3cccc3)nc12 [Beispiel 35, 7-Cyclopentyl-4-ethyl-2-(N-pyrrolylmethyl)-imidazo[4.5-e]-s-triazolo[1.5-a]pyrimidin-5-on] | 2.6 |
